Values after ≈ are worked out from the molar mass of the structure shown.
Assays:
Assay type in all cases: cell-based
[1] = tested on: S. pneumoniae mef A genotype (first strain so labelled); assay: CLSI broth dilution MIC determination; conditions: Streptococcus pneumoniae, first strain (MP-626 UNT-038)
Outline: (§1)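 Read-out is the MIC by broth dilution, done according to CLSI standard procedures, with azithromycin and solithromycin included as control macrolides in many runs.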

[2] = tested on: strains of B. subtilis, E. coli, S. aureus, S. pneumoniae, and H. influenzae, including several multidrug-resistant strains; assay: CLSI broth dilution MIC determination, whole panel of strains; conditions: from MIC data, Tables B1-B13
Excerpt: MIC data was collected for the novel macrolides that this platform has produced against over 21 unique strains of B. subtilis, E. coli, S. aureus, S. pneumoniae, and H. influenzae, including several multidrug-resistant strains, with a special focus on macrolide resistant mechanisms (vide supra). Azithromycin (Azithro) and Solithromycin (Solithro) were included as a control macrolides in many cases. CLSI standard procedures for broth dilution MIC determination were used. […] These genotypes can be constitutive or inducible.

[3] = tested on: E. coli MP-532 clinical-cErmB; assay: CLSI broth dilution MIC determination; conditions: Escherichia coli
Outline: as §1

E. coli MP-541 clinical = assay: CLSI broth dilution MIC determination; conditions: Escherichia coli, MP541CLINICAL, read-out: MIC
Outline: as §1

[4] = tested on: E. coli MP-9 ATCC25922:tolC; assay: CLSI broth dilution MIC determination; conditions: Escherichia coli, ATCC25922
Outline: as §1

[5] = tested on: S. aureus (MRSA) MP-513 ST-228 cErm (Clinical-cErm); assay: CLSI broth dilution MIC determination; conditions: Staphylococcus aureus, read-out: MIC
Outline: as §1

[6] = tested on: S. aureus MP-17 ATCCBAA-977 (BAA 977 iErm); assay: CLSI broth dilution MIC determination; conditions: Staphylococcus aureus
Outline: as §1

P. aeruginosa MP-7 PAO1 = assay: CLSI broth dilution MIC determination; conditions: Pseudomonas aeruginosa, read-out: MIC
[7] = tested on: P. aeruginosa MP-8 PAO1:mex (mex-oprM-deletion); assay: CLSI broth dilution MIC determination; conditions: Pseudomonas aeruginosa, PAO1
[8] = tested on: K. pneumoniae MP-548 clinical; assay: CLSI broth dilution MIC determination; conditions: Klebsiella pneumoniae, MP548CLINICAL, read-out: MIC
[9] = tested on: K. pneumoniae MP-546 Clinical-MDR; assay: CLSI broth dilution MIC determination; conditions: Klebsiella pneumoniae, read-out: MIC
[10] = tested on: A. baumannii MP-577 Clinical-AZT low; assay: CLSI broth dilution MIC determination; conditions: Acinetobacter baumannii, read-out: MIC

Row | Compound | MIC [1] [µg/mL] | potency compared with solithromycin [2] | MIC [3] [µg/mL] | MIC (E. coli MP-541 clinical) [µg/mL] | MIC [4] [µg/mL] | MIC [5] [µg/mL] | MIC [6] [µg/mL] | MIC (P. aeruginosa MP-7 PAO1) [µg/mL] | MIC [7] [µg/mL] | MIC [8] [µg/mL] | MIC [9] [µg/mL] | MIC [10] [µg/mL]
1 | CC[C@H]1OC(=O)[C@@](C)(F)C(=O)[C@H](C)[C@@H](O[C@@H]2OC(C)CC(N(C)C)C2O)[C@](C)(OC)C[C@@H](C)C(=O)[C@H](C)[C@H]2N(CC#CCn3cc(-c4cccc(N)c4)nn3)C(=O)O[C@]12C (stereo partly drawn) [FSM-100426] | < 0.0312 | more potent |  |  |  |  |  |  |  |  |  | 
2 | CC[C@H]1OC(=O)[C@@](C)(F)C(=O)[C@H](C)[C@@H](OC2OC(C)CC(N(C)C)C2O)[C@](C)(OC)C[C@@H](C)C(=O)[C@H](C)[C@H]2N(CCCCn3cc(-c4cccc(N)c4)nn3)C(=O)O[C@]12C (stereo partly drawn) [Solithro, solithromycin, reference compound] |  |  | > 32 | 16 (≈ 18.9 µM) | 4 (≈ 4.73 µM) | > 32 | 0.125 (≈ 0.148 µM) | > 32 | 8 (≈ 9.47 µM) | 32 (≈ 37.9 µM) | > 32 | 32 (≈ 37.9 µM)

Reference: patent US10633407B2, “14-membered ketolides and methods of their preparation and use” (President and Fellows of Harvard College, priority 2014, dated 2020)
